Entries after “also recorded” stand apart in the source; their conditions may differ. Read-outs that look alike come from different tables or passages of the source.
Tests used:
HCT116 [1] = experiment: MTS antiproliferative assay, HCT116 (with or without added metal ions); assay type: cell-based, human; settings: for Selectivity index, calculated for HCT116: versus NHDF
Description: (§1) The cells were seeded in 96-well plates (Nunc) at a density of 3,500 cells/well (HCT116 and MCF-7) and 3,000 cells/well (NHDF) and incubated at 37° C for 24 h. The assay was performed following a 96 h incubation with varying concentrations of the compounds that were being tested. Then, 20 µL of CellTiter 96® AQueous One Solution-MTS (Promega) was added to each well (with 100 µL DMEM without phenol red) and incubated for 1 h at 37° C. The optical densities of the samples were analyzed at 490 nm using a multi-plate reader (Synergy 4, Bio Tek). Results were expressed as a percentage of the control and calculated as the inhibitory concentration (IC50) values (using GraphPad Prism 5). The IC50 parameter was defined as the compound concentration that was necessary to reduce the proliferation of cells to 50% of the untreated control. Each individual compound was tested in triplicate in a single experiment with each experiment being repeated three or four times.
(§2) The HCT116 and MCF-7 cells were seeded in 96-well plates (Nunc) at a density of 3,500 cells/well and incubated at 37° C for 24 h. The MTS assay was performed following a 96 h incubation with varying concentrations of the tested compounds. Additionally, a 20 µM solution of CuSO4, FeSO4 or FeCl3 was added into wells with the tested compounds. The results were expressed as a percentage of the control and calculated as the inhibitory concentration (IC50) values using GraphPad Prism 5. Each individual compound was tested in triplicate in a single experiment with each experiment being repeated three times.

MCF-7 = experiment: MTS antiproliferative assay, MCF-7 (with or without added metal ions); assay type: cell-based, human; settings: for improvement in cytotoxicity after interacting with Cu^2+: MCF-7 cells, 20 µM CuSO4; for Selectivity index, calculated for MCF-7: versus NHDF
Description: as §1, §2

MnSOD = experiment: mRNA expression (Real-Time PCR) of MnSOD; assay type: cell-based, human; settings: HCT116, TSC 1 µM, 12 or 24 h
Description: (§3) The HCT116 cells were seeded in 3 cm Petri dishes (Nunc) at a density of 0.5·10^6 cells/well and incubated overnight. Next, the medium was removed and solutions of TSC (1 μM) and DOX (5 μM) were added. After 12 or 24 h, total RNA was isolated from the cells using TRIzol Reagent (Ambion) according to the manufacturer’s instructions. cDNA synthesis was performed with 5 μg of total RNA using a GoScript™ Reverse Transcriptase kit (Promega) and Oligo(dT)23 Primers (Sigma). The Real-Time PCR was performed with a CTX96 Touch™ Real-Time PCR Detection System (Biorad) in a 20 μL reaction volume. The reaction consisted of PowerUp™ SYBR® Green Master Mix (Applied Biosystems), a primer pair mix (0.5 μM each) and 1 μL of cDNA. All primer pair sequences were purchased from Sigma-Aldrich and are listed in Supplementary Table 2. The experiment was performed under the following conditions: initial denaturation at 95° C for 120 sec; followed by 40 denaturation cycles at 95° C, 15 sec; annealing (primer-specific temperature for 30 sec) and extension at 72° C for 60 sec. Data was analyzed based on a comparison of the expression of the target genes to a reference gene – β-actin, using the 2^–ΔΔCT method. The experiments were performed at least three times.

CAT = experiment: mRNA expression (Real-Time PCR) of CAT; assay type: cell-based, human; settings: HCT116, TSC 1 µM, after the first 12 h
Description: as §3

Ndrg1 = experiment: mRNA expression (Real-Time PCR) of Ndrg1; assay type: cell-based, human; settings: HCT116, TSC 1 µM, 24 h
Description: as §3

p21 = experiment: Western blot of p21; assay type: cell-based, human; settings: HCT116, 1 µM
Description: (§4) The HCT116 cells were seeded in 3 cm Petri dishes (Nunc) at a density of 0.5·10^6 cells/well and incubated overnight. The next day, solutions of TSC (1 μM) and DOX (5 μM) were added and the cells incubated for 24 or 48 h. Cells were harvested by trypsinization and washed with cold PBS. Next, the cells were centrifuged and suspended in an RIPA buffer (Thermo Scientific) containing Halt Protease Inhibitor Cocktail (Thermo Scientific), Halt Phosphatase Inhibitor Cocktail (Thermo Scientific) along with 0.5 M EDTA and lysed for 20 min on ice. Then, the lysates were sonicated, centrifuged at 10,000 rpm for 10 min at 4° C and the supernatants were collected for further analysis. The protein concentration was determined using a Micro BCA™ Protein Assay Kit (Thermo Scientific) according to the manufacturer’s instructions. Equal amounts of the proteins (20 μg) were electrophoresed on SDS-Page gels and transferred onto a nitrocellulose membranes. The membranes were blocked in 5% non-fat milk prepared in PBS containing 0.1% Tween-20 (TPBS) for 1 h. After blocking, the membranes were incubated with specific primary antibodies: cdc2 (#POH1, Cell Signaling), p21^Waf1/Cip1 (#12D1, Cell Signaling), p53 (#1C12, Cell Signaling) and β-Actin (#8H10D10, Cell Signaling) overnight at 4° C, then washed and incubated with horseradish peroxidase (HRP)-conjugated secondary antibodies for 1h at room temperature. All of antibodies were diluted 1:1000 in 5% milk in TPBS. Finally, the membranes were washed and incubated with a SuperSignal™ West Pico Chemiluminescent Substrate (Thermo Scientific). The chemiluminescence signals were captured using a ChemiDoc™ XRS+ System (BioRad). The experiments were performed at least three times. Densitometric analysis was performed using ImageJ 1.41 software (Wayne Rasband, National Institutes of Health, USA).

cdc2 = experiment: Western blot of cdc2; assay type: cell-based, human; settings: HCT116, 1 µM
Description: as §4

HCT116 cells = experiment: Cell cycle assay (Muse Cell-Cycle Kit); assay type: cell-based, human; settings: HCT116, TSC 1 µM, 48 h
Description: The HCT116 cells were seeded in 3 cm Petri dishes (Nunc) at a density of 0.25·10^6 cells/well and incubated at 37° C for 24 h. […] After a 48 h treatment, assays were performed using a Muse Cell-Cycle Kit (Millipore) according to the manufacturer’s instructions. Briefly, cells were collected, washed with cold PBS and centrifuged at 300 g. Then, the cells were fixed in ice cold 70% ethanol and stored at –20° C overnight. Afterwards, the cells were centrifuged and resuspended in 200 μL of Muse™ Cell Cycle Reagent and incubated for 30 min at room temperature in the dark. After staining, the cells were processed for cell cycle analysis using a Muse Cell Analyzer (Millipore). The experiments were performed at least three times.

calf-thymus DNA (CT-DNA) = experiment: Intercalation, absorption spectra with CT-DNA; assay type: binding; settings: for % hypochromism / Changes in absorbance / Δε: bound to CT-DNA; for blue/red shift: wavelengths of maximum absorption, compound alone vs DNA-bound
Description: For the DNA binding studies, Calf-thymus DNA (CT-DNA) was purchased from Sigma Aldrich. The lyophilized CT-DNA was dissolved in 10 mM Tris-HCl, pH 7.9, mixed gently and left overnight at 4° C. The purity of the CT-DNA solution was determined by measuring the ratio of UV absorbance at 260 and 280 nm. […] Then, the concentration of CT-DNA was determined from the absorbance at 260 nm using an extinction coefficient of 6600 M^–1cm^–1. The tested TSC and DOX were dissolved in DMSO to a concentration of 8.35 mM, which was then used as the stock solution for preparing the various concentrations (25, 12.5, 6 and 3 µM) in 1 mL in 10 mM of Tris-HCl (pH 7.9). Afterwards, 18 µM CT-DNA was added to the prepared solutions, which were incubated for 1.5 h at 37° C with occasional vortexing. The absorption spectra were measured using a Hitachi U-2900 spectrophotometer in range of 200–500 nm. All absorption spectra were imported and compared in OriginPro 8.0.

HCT116 [2] = tested on: HCT116; design: method as in PMID 25329549; settings: 96 h incubation, MTS; cited from earlier work
NHDF [3] = tested on: NHDF; design: method as in PMID 25329549; settings: 96 h incubation, MTS; cited from earlier work
NHDF [4] = experiment: MTS cytotoxicity assay, normal fibroblasts; assay type: cell-based, human; settings: Homo sapiens, NHDF, 96 h incubation
Description: as §1

[5] = 96 h, 20 µM CuSO4 added, read-out: Activity - IC50 HCT116+ Cu^2+
[6] = 96 h, 20 µM FeCl3 added, read-out: Activity - IC50 HCT116+ Fe^3+
[7] = 96 h, 20 µM CuSO4 added, read-out: Activity - IC50 MCF-7+ Cu^2+
[8] = 96 h, 20 µM FeCl3 added, read-out: Activity - IC50 MCF-7+ Fe^3+
[9] = 96 h incubation, MTS, read-out: Activity - IC50 MCF-7
[10] = Homo sapiens, HCT-116, 96 h, 20 µM CuSO4 added, read-out: Activity - IC50 HCT116+ Cu^2+
[11] = Homo sapiens, HCT-116, 96 h, 20 µM FeCl3 added, read-out: Activity - IC50 HCT116+ Fe^3+
[12] = Homo sapiens, MCF7, 96 h, 20 µM CuSO4 added, read-out: Activity - IC50 MCF-7+ Cu^2+
[13] = Homo sapiens, MCF7, 96 h, 20 µM FeCl3 added, read-out: Activity - IC50 MCF-7+ Fe^3+
[14] = Homo sapiens, MCF7, 96 h incubation, MTS, read-out: Activity - IC50 MCF-7

| IC50 (HCT116 [1]; [5]) [nM] | IC50 (HCT116 [1]; [6]) [nM] | IC50 (MCF-7; [7]) [nM] | IC50 (MCF-7; [8]) [nM] | IC50 (MCF-7; [9]) [nM] | IC50 (HCT116 [1]; [10]) [nM] | IC50 (HCT116 [1]; [11]) [nM] | Structure (SMILES) | improvement in cytotoxicity after interacting with Cu^2+ (MCF-7) | mRNA expression of MnSOD (MnSOD) | mRNA expression of CAT (CAT) | mRNA expression of Ndrg1 (Ndrg1) | expression of p21 protein (densitometric analysis) (p21) | expression of cdc2 protein (densitometric analysis) (cdc2) | % hypochromism (calf-thymus DNA (CT-DNA)) [%] | Changes in absorbance (calf-thymus DNA (CT-DNA)) | Δε (calf-thymus DNA (CT-DNA)) [M⁻¹ cm⁻¹] | blue/red shift (calf-thymus DNA (CT-DNA)) [nm] | IC50 (HCT116 [2]) [nM] | IC50 (NHDF [3]) [nM] | cells in S phase (HCT116 cells) | also measured |
| --- | --- | --- | --- | --- | --- | --- | --- | --- | --- | --- | --- | --- | --- | --- | --- | --- | --- | --- | --- | --- | --- |
| 1.56 ± 0.44 | 9.94 ± 2.69 | 0.54 ± 0.15 | 5.35 ± 0.66 | 4.1 ± 0.93 |  |  | S=C(NN=C(c1ccccn1)c1ccccn1)N1CCN(c2ccccn2)CC1 [Compound 3b] | eight-fold | large drop | higher | strongest | increased p21 level, but in a lesser degree | strongest decreasing effect | 31.9 | hypochromism | 6133.3 | 5 | 2.06 ± 0.88 | 160 ± 40 |  | cells in G0/G1 phase (HCT116 cells; untreated 72%): 39% |
| 59.6 ± 6.45 | 96.9 ± 16.9 | 44.9 ± 3.77 | 273 ± 35.6 | 219 ± 15.1 |  |  | S=C(NN=Cc1ccc2ccccc2n1)N1CCN(c2cnccn2)CC1 [Compound 1a] |  | after the initial decline (for 12 h) there is a small increase |  |  |  |  | 22.0 | hypochromism | 3175.6 | 1 | 87.7 ± 43.9 | 9440 |  |  |
| 1.39 ± 0.44 | 7.57 ± 1.19 | 2.39 ± 0.42 | 8.83 ± 1.29 | 10.9 ± 2.85 |  |  | Oc1cccc2ccc(C=NNC(=S)N3CCOCC3)nc12 [Compound 2a] |  | slight increase |  |  |  |  | 15.7 | hypochromism | 1935.6 | 10 | 3.84 ± 1.46 | 10600 | 33–35% |  |
|  |  |  |  |  | 0.31 ± 0.06 | 1.77 ± 0.36 | CN(C)C(=S)NN=C(c1ccccn1)c1ccccn1 [Dp44mT, di-2-pyridylketone 4,4-dimethyl-3-thiosemicarbazone, reference compound] |  |  |  |  | marked up-regulation | lowest values | 8.2 | hypochromism | 1673.3 | 2 | 1.4 ± 0.13 | 15400 | 41% | Selectivity index, calculated for HCT116 (HCT116 [1]): 10985.7; IC50 (MCF-7; [12]): 0.13 ± 0.04 nM; IC50 (MCF-7; [13]): 0.96 ± 0.32 nM; IC50 (MCF-7; [14]): 0.38 ± 0.15 nM; Selectivity index, calculated for MCF-7 (MCF-7): 40473.7; ability to intercalate DNA (calf-thymus DNA (CT-DNA); CT-DNA, absorption spectra): very weak |
|  |  |  |  |  | 19.7 ± 0.53 | 72.4 ± 12.9 | Fc1ccc(N2CCN(C(=S)NN=Cc3ccc4ccccc4n3)CC2)cc1 [Compound 1b, 4-(4-fluorophenyl)-N’-[(quinolin-2-yl)methylidene]piperazine-1-carbothiohydrazide] | eight-fold | large drop |  |  | increased p21 level, but in a lesser degree | lowest values; also recorded: strongest decreasing effect | 24.2 | hypochromism | 2313.3 | 10 |  |  |  | IC50 (HCT116 [1]; Homo sapiens, HCT-116, 96 h incubation, MTS, read-out: Activity - IC50 HCT116): 62.2 ± 8.95 nM; Selectivity index, calculated for HCT116 (HCT116 [1]): 1.8; IC50 (MCF-7; [12]): 3.78 ± 0.88 nM; IC50 (MCF-7; [13]): 25 ± 2.16 nM; IC50 (MCF-7; [14]): 31.4 ± 3.38 nM; Selectivity index, calculated for MCF-7 (MCF-7): 3.6; IC50 (NHDF [4]): 114 ± 10.3 nM |
| 4.17 ± 1.12 | 78.2 ± 14 | 5.49 ± 1.19 | 35.8 ± 5.82 | 32.2 ± 6.85 |  |  | Oc1cccc2ccc(C=NNC(=S)N3CCN(c4cnccn4)CC3)nc12 [Compound 2b] |  |  | higher | strongest |  | increased the expression | 9.4 | hypochromism | 1888.9 | 5 | 50.5 ± 28.1 | 12100 | 33–35% | improvement in cytotoxicity after interacting with Cu^2+ (HCT116 [1]; HCT116 cells, 20 µM CuSO4): more than a ten-fold increase |

Source: publication PMC5915149, “The role of oxidative stress in activity of anticancer thiosemicarbazones” (Oncotarget, 2018)
